# Measured values from patent US10144742B2 (Millennium Pharmaceuticals, Inc., priority 2014, dated 2018).
# Read-outs that look alike come from different tables or passages of the source.
# Legend:
# [1] = test system: experimental autoimmune encephalomyelitis (EAE); settings: model of T-cell mediated autoimmune disorders; cited from earlier work
# [2] = test system: collagen-induced arthritis; settings: cited from earlier work
# activated T cells = settings: cited from earlier work
# hNAMPT protein = hNAMPT protein (Homo sapiens (Human), UniProt P43490); test: NAMPT enzyme assay (TR-FRET/HTRF, BodiPY ligand, anti 6His-Tb); type: binding; settings: for IC50: read-out: IC50; for inhibition at 1 µM: read-out: Percent Inhibition
# Chain of hNAMPT protein (P43490 whole entry): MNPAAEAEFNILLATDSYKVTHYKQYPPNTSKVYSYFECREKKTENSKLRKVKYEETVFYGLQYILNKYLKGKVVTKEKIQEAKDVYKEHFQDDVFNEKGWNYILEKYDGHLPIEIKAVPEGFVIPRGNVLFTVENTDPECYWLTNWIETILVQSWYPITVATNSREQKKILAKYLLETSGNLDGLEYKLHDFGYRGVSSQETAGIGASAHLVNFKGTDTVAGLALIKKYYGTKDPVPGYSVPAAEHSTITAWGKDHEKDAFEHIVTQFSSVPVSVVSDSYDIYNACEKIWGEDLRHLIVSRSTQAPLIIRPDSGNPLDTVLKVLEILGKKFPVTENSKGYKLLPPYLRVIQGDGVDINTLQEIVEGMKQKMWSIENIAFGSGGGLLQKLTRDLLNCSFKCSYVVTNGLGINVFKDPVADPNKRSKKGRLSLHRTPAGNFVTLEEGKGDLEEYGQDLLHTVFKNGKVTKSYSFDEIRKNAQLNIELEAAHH
# How it was run: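 TR-FRET binding assay in which His-tagged human NAMPT with anti-6His-Tb is displaced by compound from a BodiPY ligand, incubated 1 h at rt in the dark. Excitation was at 320 nm, with the 520/486 nm emission ratio read. IC50 was fitted from inhibition relative to DMSO controls.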
# PC3 cells = test: PC3 growth inhibition (Cell-titer glo, 72 hours); type: cell-based; settings: Homo sapiens, PC-3, PC3 cells, 72 hours, Cell-titer glo, read-out: Percent Inhibition (PC3 growth inhibition); for inhibition at 1 µM: compound concentration 1 μM; for inhibition at 1.667 µM: compound concentration 1.667 μM
# How it was run: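 PC3 cells in RPMI1640 seeded overnight at 37 °C, 5% CO2, then exposed to compound diluted in AIM serum-free medium for 72 h. Viability by CellTiter-Glo luminescence vs DMSO controls; single-concentration % remaining viability (1 μM or 1.667 μM), or GI50/LD50 from curves.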
SMILES,IC50 (hNAMPT protein; NAMPT IC50 range class),inhibition at 1 µM (hNAMPT protein; compound concentration 1 μM),inhibition at 1 µM (PC3 cells),inhibition at 1.667 µM (PC3 cells),other results
O=C(/C=C/c1cccnc1)NCCCCC1CCN(C(=O)c2ccccc2)CC1 [FK866],,,,,effect on manifestations of EAE [1]: ameliorated the manifestations of experimental autoimmune encephalomyelitis; efficacy in animal models of arthritis [2]: efficacious; effect on activated T cells (activated T cells): selectively block proliferation and induce apoptosis of activated T cells
"COc1cccc(-c2nc3cc(C(=O)NCCCn4ccnc4)ccc3nc2-c2ccccc2)c1 [Compound I-218, N-[3-(1H-imidazol-1-yl)propyl]-3-(3-methoxyphenyl)-2-phenylquinoxaline-6-carboxamide]",< 100 nM,100%,0%,,
"O=C(NCCCn1ccnc1)c1ccc2nc(-c3ccccc3)c(-c3ccc4nccn4c3)nc2c1 [Compound I-69, N-[3-(1H-imidazol-1-yl)propyl]-3-(imidazo[1,2-a]pyridin-6-yl)-2-phenylquinoxaline-6-carboxamide]",100 to 500 nM,75%,0%,,
"O=C(NCCCc1ncc[nH]1)c1ccc2nc(OC3CCCCC3)c(-c3ccc(Cl)cc3)nc2c1 [Compound I-216, 3-(4-chlorophenyl)-2-(cyclohexyloxy)-N-[3-(1H-imidazol-2-yl)propyl]quinoxaline-6-carboxamide]",< 100 nM,91%,,3%,
"CCOC(=O)CCc1ccc(-c2nc3ccc(C(=O)NCCCn4ccnc4)cc3nc2-c2ccccc2)cc1 [Compound I-205, ethyl 3-[4-(6-{[3-(1H-imidazol-1-yl)propyl]carbamoyl}-3-phenylquinoxalin-2-yl)phenyl]propanoate]",100 to 500 nM,84%,104%,,
"O=C(NCCCn1ccnc1)c1ccc2nc(N3CCOCC3)c(-c3ccccc3)nc2c1 [Compound I-96, N-[3-(1H-imidazol-1-yl)propyl]-2-(morpholin-4-yl)-3-phenylquinoxaline-6-carboxamide]",100 to 500 nM,82%,0%,,
"CCN(CC)c1nc2cc(C(=O)NCCCn3ccnc3)ccc2nc1-c1ccccc1 [Compound I-278, 3-(diethylamino)-N-[3-(1H-imidazol-1-yl)propyl]-2-phenylquinoxaline-6-carboxamide]",2000 to 10000 nM,15%,98%,,
"O=C(NCCCn1ccnc1)c1ccc2nc(-c3ccccc3)c(-c3ccccc3Cl)nc2c1 [Compound I-281, 3-(2-chlorophenyl)-N-[3-(1H-imidazol-1-yl)propyl]-2-phenylquinoxaline-6-carboxamide]",1000 to 2000 nM,37%,6%,,
"O=C(NCCCc1ncc[nH]1)c1ccc2nc(-c3ccc(F)cc3)c(-c3ccccc3F)nc2c1 [Compound I-313, 3-(2-fluorophenyl)-2-(4-fluorophenyl)-N-[3-(1H-imidazol-2-yl)propyl]quinoxaline-6-carboxamide]",100 to 500 nM,86%,,2%,
"Cn1cncc1CCNC(=O)c1ccc2nc(N3CCC(O)CC3)c(-c3ccc(F)cc3)nc2c1 [Compound I-292, 3-(4-fluorophenyl)-2-(4-hydroxypiperidin-1-yl)-N-[2-(1-methyl-1H-imidazol-5-yl)ethyl]quinoxaline-6-carboxamide]",< 100 nM,90%,,2%,
"CC(C)(C)OC(=O)NCc1ccccc1-c1nc2cc(C(=O)NCCCn3ccnc3)ccc2nc1-c1ccccc1 [Compound I-217, tert-butyl[2-(7-{[3-(1H-imidazol-1-yl)propyl]carbamoyl}-3-phenylquinoxalin-2-yl)benzyl]carbamate]",2000 to 10000 nM,26%,95%,,
"CC(C)(C)OC(=O)N1CCC(C2CCN(c3nc4ccc(C(=O)NCCCn5ccnc5)cc4nc3-c3ccccc3)CC2)CC1 [Compound I-188, tert-butyl 1′-(6-{[3-(1H-imidazol-1-yl)propyl]carbamoyl}-3-phenylquinoxalin-2-yl)-4,4′-bipiperidine-1-carboxylate]",100 to 500 nM,83%,-7%,,
"O=C(NCCCc1ncc[nH]1)c1ccc2nc(-c3ccc(F)cc3)c(-c3cc(Cl)ccc3Cl)nc2c1 [Compound I-353, 3-(2,5-dichlorophenyl)-2-(4-fluorophenyl)-N-[3-(1H-imidazol-2-yl)propyl]quinoxaline-6-carboxamide]",< 100 nM,97%,,2%,
"O=C(NCCCn1ccnc1)c1ccc2nc(N3CCCC3)c(-c3ccccc3)nc2c1 [Compound I-206, N-[3-(1H-imidazol-1-yl)propyl]-3-phenyl-2-(pyrrolidin-1-yl)quinoxaline-6-carboxamide]",100 to 500 nM,75%,-7%,,
"O=C(NCCCn1ccnc1)c1ccc2nc(-c3ccccc3)c(-c3ccccc3)nc2c1 [Compound I-261, N-[3-(1H-imidazol-1-yl)propyl]-2,3-diphenylquinoxaline-6-carboxamide]",100 to 500 nM,67%,-1%,,
"Cc1ccc(C)c(-c2nc3cc(C(=O)NCCCc4ncc[nH]4)ccc3nc2-c2ccc(F)cc2)c1 [Compound I-450, 3-(2,5-dimethylphenyl)-2-(4-fluorophenyl)-N-[3-(1H-imidazol-2-yl)propyl]quinoxaline-6-carboxamide]",,,,1%,"inhibition at 1 µM (hNAMPT protein; NAMPT inhibition at compound concentration 1 μM): 93%; IC50 (hNAMPT protein; NAMPT inhibition, IC50 range class): < 100 nM"
